Patent US6737383B1, “Herbicidal oxadiazolidines” (priority 1999, dated 2004)

Key:
giant foxtail = test: Test B pre/postemergence giant foxtail; type: in vivo, Setaria faberii
Outline: (§1)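 Herbicidal effect was estimated by eye on a ten-point control scale after plants spent twelve to sixteen days in a greenhouse following soil or foliar treatment. Foliar sprays targeted plants at one to four leaves; all doses were formulated in a non-phytotoxic solvent with surfactant.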

pigweed = test: Test B pre/postemergence pigweed; type: in vivo, Amaranthus retroflexus
Outline: as §1

surinam grass = test: Test B pre/postemergence surinam grass; type: in vivo, Brachiaria decumbens
Outline: as §1

wheat = test: Test B pre/postemergence wheat; type: in vivo, Triticum aestivum
Outline: as §1

corn = test: Test B pre/postemergence corn; type: in vivo, Zea mays
Outline: as §1

cocklebur = test: Test B pre/postemergence cocklebur; type: in vivo, Xanthium strumarium
Outline: as §1

morningglory = test: Test B pre/postemergence morningglory; type: in vivo, Ipomoea hederacea
Outline: as §1

rice = test: Test B flood test rice; type: in vivo, Oryza sativa
Outline: (§2)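 Flood test on plants grown to the 2-leaf stage; treated plants kept in greenhouse twelve to sixteen days, then visually rated against controls on a 0 (no effect) to 10 (complete control) scale.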

wild oat = test: Test B pre/postemergence wild oat; type: in vivo, Avena fatua
Outline: as §1

blackgrass = test: Test B pre/postemergence blackgrass; type: in vivo, Alopecurus myosuroides
Outline: as §1

bamyardgrass = test: Test B flood test barnyardgrass; type: in vivo, Echinochloa crus-galli
Outline: as §2

bedstraw = test: Test B pre/postemergence bedstraw; type: in vivo, Galium aparine; details: Postemergence, 10 is complete control
Outline: as §1

sugar beet = test: Test B pre/postemergence sugar beet; type: in vivo, Beta vulgaris
Outline: as §1

crabgrass = test: Test B pre/postemergence crabgrass; type: in vivo, Digitaria sanguinalis
Outline: as §1

purple nutsedge = test: Test B pre/postemergence purple nutsedge; type: in vivo, Cyperus rotundus
Outline: as §1

rape = test: Test B pre/postemergence rape; type: in vivo, Brassica napus
Outline: as §1

[1] = Postemergence, Rate 62 g/ha, scale 0 to 10, 0 is no effect, 10 is complete control
[2] = Postemergence, Rate 125 g/ha, scale of 0 to 10 where 0 is no effect and 10 is complete control
[3] = Postemergence, Rate 250 g/ha, scale of 0 to 10, 0 is no effect, 10 is complete control
[4] = Postemergence, Rate 500 g/ha, scale of 0 to 10 where 0 is no effect and 10 is complete control
[5] = Preemergence, Rate 62 g/ha, scale of 0 to 10 where 0 is no effect and 10 is complete control
[6] = Preemergence, Rate 125 g/ha, scale of 0 to 10 where 0 is no effect and 10 is complete control
[7] = Preemergence, Rate 250 g/ha, scale 0 to 10 (0 no effect, 10 complete control)
[8] = Preemergence, Rate 500 g/ha, scale of 0 to 10 where 0 is no effect and 10 is complete control
[9] = Rate 62 g/ha, flood test species, Pre-emergence, visual evaluation after twelve to sixteen days
[10] = Rate 125 g/ha, under heading Pre-emergence, flood test species, visual evaluation after twelve to sixteen days
[11] = Rate 250 g/ha, Pre-emergence (flood test species), scale 0 to 10, 0 is no effect, 10 is complete control
[12] = Rate 500 g/ha, Pre-emergence section of Table B, 0 to 10 scale (0 no effect, 10 complete control)

CC(C)N(C(=O)n1oc(=O)n(Cc2nnc(Cl)s2)c1=O)c1ccc(F)cc1F [Compound 645]
Plant response rating, Giant foxtail (giant foxtail; [1]): 0
Giant foxtail plant response rating (giant foxtail; [2]): 0
Giant foxtail plant response rating (giant foxtail; [3]): 0
Plant response rating, Giant foxtail (giant foxtail; [4]): 2
Giant foxtail plant response rating (giant foxtail; [5]): 1
Giant foxtail plant response rating (giant foxtail; [6]): 2
Plant response rating, Giant foxtail (giant foxtail; [7]): 5
Plant response rating, Giant foxtail (giant foxtail; [8]): 7
Plant response rating, Redroot pigweed (pigweed; [1]): 0
Redroot pigweed plant response rating (pigweed; [2]): 2
Redroot pigweed plant response rating (pigweed; [5]): 0
Redroot pigweed plant response rating (pigweed; [6]): 0
Plant response rating, Redroot pigweed (pigweed; [7]): 0
Plant response rating, Redroot pigweed (pigweed; [8]): 4
Plant response rating, B. signalgrass (surinam grass; [1]): 0
Plant response rating, B. signalgrass (surinam grass; [2]): 0
B. signalgrass plant response rating (surinam grass; [3]): 0
Plant response rating, B. signalgrass (surinam grass; [4]): 0
B. signalgrass plant response rating (surinam grass; [5]): 0
B. signalgrass plant response rating (surinam grass; [6]): 0
Plant response rating, B. signalgrass (surinam grass; [7]): 0
Plant response rating, B. signalgrass (surinam grass; [8]): 0
Plant response rating, Wheat (wheat; [1]): 0
Wheat plant response rating (wheat; [2]): 0
Wheat plant response rating (wheat; [5]): 0
Wheat plant response rating (wheat; [6]): 0
Plant response rating, Wheat (wheat; [7]): 0
Plant response rating, Wheat (wheat; [8]): 0
Plant response rating, Corn (corn; [1]): 0
Corn plant response rating (corn; [2]): 0
Corn plant response rating (corn; [3]): 0
Plant response rating, Corn (corn; [4]): 0
Corn plant response rating (corn; [5]): 0
Corn plant response rating (corn; [6]): 0
Plant response rating, Corn (corn; [7]): 0
Plant response rating, Corn (corn; [8]): 0
Plant response rating, Cocklebur (cocklebur; [1]): 0
Cocklebur plant response rating (cocklebur; [2]): 0
Cocklebur plant response rating (cocklebur; [3]): 3
Plant response rating, Cocklebur (cocklebur; [4]): 7
Cocklebur plant response rating (cocklebur; [5]): 0
Cocklebur plant response rating (cocklebur; [6]): 0
Plant response rating, Cocklebur (cocklebur; [7]): 0
Plant response rating, Cocklebur (cocklebur; [8]): 0
Plant response rating, Morningglory (morningglory; [1]): 0
Morningglory plant response rating (morningglory; [2]): 0
Morningglory plant response rating (morningglory; [3]): 1
Plant response rating, Morningglory (morningglory; [4]): 3
Morningglory plant response rating (morningglory; [5]): 0
Morningglory plant response rating (morningglory; [6]): 0
Plant response rating, Morningglory (morningglory; [7]): 0
Plant response rating, Morningglory (morningglory; [8]): 0
Plant response rating, Rice (0 to 10 scale, 0 is no effect, 10 is complete control) (rice; [9]): 0
Rice plant response rating (0 to 10 scale, 0 is no effect, 10 is complete control) (rice; [10]): 0
Rice plant response rating (rice; [11]): 0
Rice plant response rating (rice; [12]): 0
Plant response rating, Wild oats (wild oat; [1]): 0
Wild oats plant response rating (wild oat; [2]): 0
Wild oats plant response rating (wild oat; [5]): 0
Wild oats plant response rating (wild oat; [6]): 0
Plant response rating, Wild oats (wild oat; [7]): 0
Plant response rating, Wild oats (wild oat; [8]): 0
Plant response rating, Blackgrass (blackgrass; [1]): 0
Blackgrass plant response rating (blackgrass; [2]): 0
Blackgrass plant response rating (blackgrass; [3]): 0
Plant response rating, Blackgrass (blackgrass; [4]): 0
Blackgrass plant response rating (blackgrass; [5]): 0
Blackgrass plant response rating (blackgrass; [6]): 0
Plant response rating, Blackgrass (blackgrass; [7]): 0
Plant response rating, Blackgrass (blackgrass; [8]): 0
Plant response rating, Barnyardgrass (0 to 10 scale, 0 is no effect, 10 is complete control) (bamyardgrass; [9]): 0
Barnyardgrass plant response rating (0 to 10 scale, 0 is no effect, 10 is complete control) (bamyardgrass; [10]): 0
Barnyardgrass plant response rating (bamyardgrass; [11]): 0
Barnyardgrass plant response rating (bamyardgrass; [12]): 0
Plant response rating, Bedstraw (bedstraw; Rate 62 g/ha, scale 0 to 10, 0 is no effect): 0
Bedstraw plant response rating (bedstraw; Rate 250 g/ha, scale of 0 to 10, 0 is no effect): 0
Plant response rating, Sugarbeets (sugar beet; [1]): 0
Sugarbeets plant response rating (sugar beet; [2]): 0
Sugarbeets plant response rating (sugar beet; [5]): 0
Sugarbeets plant response rating (sugar beet; [6]): 0
Plant response rating, Sugarbeets (sugar beet; [7]): 0
Plant response rating, Sugarbeets (sugar beet; [8]): 0
Plant response rating, Crabgrass (crabgrass; [1]): 0
Crabgrass plant response rating (crabgrass; [2]): 0
Crabgrass plant response rating (crabgrass; [3]): 0
Plant response rating, Crabgrass (crabgrass; [4]): 3
Crabgrass plant response rating (crabgrass; [5]): 2
Crabgrass plant response rating (crabgrass; [6]): 3
Plant response rating, Crabgrass (crabgrass; [7]): 4
Plant response rating, Crabgrass (crabgrass; [8]): 5
Plant response rating, Nutsedge (purple nutsedge; [1]): 0
Nutsedge plant response rating (purple nutsedge; [2]): 0
Nutsedge plant response rating (purple nutsedge; [5]): 0
Nutsedge plant response rating (purple nutsedge; [6]): 0
Plant response rating, Nutsedge (purple nutsedge; [7]): 0
Plant response rating, Nutsedge (purple nutsedge; [8]): 0
Plant response rating, Rape (rape; [1]): 0
Rape plant response rating (rape; [2]): 0
Plant response rating, Rape (rape; [4]): 0
Rape plant response rating (rape; [5]): 0
Rape plant response rating (rape; [6]): 0
Plant response rating, Rape (rape; [7]): 0
Plant response rating, Rape (rape; [8]): 0
